# Source: US5811073A, “Method for radioisotopic detection and localization of inflammation in a host” (President and Fellows of Harvard College, priority 1995, dated 1998)
# Legend:
# [1] = system: bacterial (E. coli) inflammatory lesions (pus capsule); assay: Biodistribution (pus capsule to contralateral tissue ratio) in rats with bacterial infection; format: in vivo; settings: for Pus Capsule and Contralateral Tissue (T/B) Ratio, biodistribution: i.v., 10 μCi/rat ^67 Ga (n=2), 5 μCi/rat ^125 IUdR (n=5), mean ± SD
# Procedure: A frozen sample of E. coli bacteria (clinical isolate; ATCC 9339) was used to inoculate a 10 ml trypticase soy medium (trypticase soy broth, BBL #11768, 30 g/L water), and the tube was incubated overnight at […] This culture was used to grow single colonies by streaking the sample on agar plates (100 mm petri dishes each containing 15 ml of […] in the same medium). Good colonies develop in 10-11 hours at 37° C. The agar plates containing bacterial colonies were stored upside down at 4° C. A single colony of bacteria from the agar plate was used to inoculate 10 ml trypticase soy medium, and the tube was incubated overnight at 37° C. with vigorous shaking. Two ml of this overnight culture was transferred into 100 ml trypticase soy medium and the sample incubated at 37° C. with vigorous shaking until the culture reached an OD600 of ~0.8 (in about 2 hrs). This 100 ml culture contained ~6.4×10^10 bacterial cells (1 OD600 =8×10^8 cells/ml).
# The culture was centrifuged at 5500 rpm for 5 min at 4° C. in a Sorvall SS-34 rotor, the bacterial pellet resuspended in saline to give ~2.5×10^9 bacteria/ml, and 0.1 ml of resuspended cells injected into the left thigh muscle of each anesthetized rat.
# No-carrier added radioiodinated deoxyuridine (^125 IUdR) was synthesized by the method described in the above disclosure. Commercially available gallium-67 citrate of known biodistribution characteristics was obtained, for comparison to ^125 IUdR. 24 hrs after each rat described in Example 2 received an intramuscular injection of E. coli or after each rat described in Example 1 received an intramuscular injection of turpentine oil (to permit comparison of activity in a bacterial inflammation lesions to activity in a sterile inflammation lesions) in the left rear thigh, each rat received either ^125 IUdR (about 5 μCi/rat) or gallium-67 citrate (about 10 μCi/rat) suspended in 0.1 ml saline, by injection into the tail vein.
# At one, three and 24 hrs after ^125 IUdR or gallium-67 citrate administration, the animals from each group were anesthetized, blood collected via cardiac puncture, urine aspirated from the urinary bladder, and the rats humanely sacrificed. The biodistribution of each radiopharmaceutical (measured as a function of the % injected dose/gram body weight) was then determined in various normal tissues and organs, as well as the left and right legs, the pus capsule formed within the leg and in contralateral muscle tissues (i.e., background tissues unaffected by inflammation) of equivalent weight.
# To determine the distribution of each radiopharmaceutical in various tissues of each rat (i.e., the "biodistribution" of each radiopharmaceutical), samples of background tissues and organs (blood, lung, liver, spleen, kidney, muscle and intestine), of target tissue (the pus capsule formed in the leg) and of contralateral muscle tissue (background tissue adjacent to target tissue) were obtained from each rat and weighed. Radioactivity in each sample was measured in a well-type gamma counter (from LKB, Wallac Oy, Finland). To correct for radioactive decay and permit calculation of activity in each organ or tissue as a fraction of the injected dosage of radiopharmaceutical, aliquots of the injected doses were counted at the same time that radioactivity in each sample was determined. The results were measured as a function of the percentage of injected dose/gram (% ID/g). For further reference regarding measurements of biodistribution of radiopharmaceuticals, particularly in blood, those of ordinary skill in the art may wish to refer to Baker et al., "The Laboratory Rat" (Acad.Press N.Y., 1980).
# Ab = %ID/g over contralateral muscle
# [2] = Total photon efficiency of gamma camera; format: physicochemical
# Procedure: For use in calculating dosages, the relative photon efficiencies of ^123 IUdR and of gallium-67 were determined.
# Total Photon Efficiency of Gamma Camera
# With Respect to ^123 IUdR and gallium-67
# keV* Frequency X Efficiency
# [3] = system: sterile inflammatory lesions (pus capsule; turpentine oil); assay: Gamma camera imaging of rats with sterile inflammation; format: in vivo, Male Sprague-Dawley rats; settings: for Figure of Merit (FOM), equation (1): 0.2 mCi ^67 Ga-citrate; for Figure of Merit (FOM), equation (1) / Pus Capsule to Contralateral Tissue (T/B) Ratio, gamma camera imaging: 1.5 mCi/rat ^123 IUdR; for Figure of Merit (FOM), equation (1) / Pus Capsule to Contralateral Tissue (T/B) Ratio, gamma camera imaging / Figure of Merit (FOM), equation (2): n=4, mean ± SD; for Pus Capsule to Contralateral Tissue (T/B) Ratio, gamma camera imaging: 0.2 mCi/rat ^67 Ga
# Procedure: Male Sprague-Dawley rats weighing between 150-200g were obtained from the Charles River Breeding Laboratories in Burlington, Mass. […] To anaesthetize the animals during testing, ketamine (40 mg/kg) and xylazine (10 mg/kg) were administered intra peritoneally (1.0 ml/kg) prior to surgical procedures. For the imaging studies, each animal received 1.5 ml/kg of a mixture of ketamine (75 mg/kg), xylazine (39 mg/kg) and acepromazine (0.75 mg/kg).
# To induce a localized sterile inflammation, 0.1 ml of turpentine oil (Rectified Turpentine Oil for medical use, Gentry Corporation, Fair Lawn, N.J.) was injected into the left thigh muscle of anesthetized rats.
# A further set of rats prepared as described in Examples 1 and 2 received intravenous injections of either ^123 IUdR (at a dose of about 1.5 mCi/rat) or gallium-67 citrate (at a dose of about 0.2 mCi/rat). After 1, 3 and 24 hours, rats from each group were anesthetized and imaged using a gamma camera (the General Electric STARCAM™ 400 fitted with parallel hole medium collimator). Anterior images were obtained 10^6 counts/frame except for the 24 h period for ^123 IUdR where a 15 min scan was carried out. A 20% window was present over the 159 keV photopeaks of ^67 Ga (93 kev, 184 keV, and 298 keV).
# Regions of interest (ROI) were drawn over the inflamed areas (3×4 pixel) and over the contralateral area in each rat. Total counts in these regions were used to calculate Target to Background (T/B) ratios and to calculate Figure of Merit (FOM; statistical significance) values using either of the following equations:
# FOM=(At -Ab)^2 /(At +Ab) (1)
# At =counts in ROI (3×4) over pus capsule; and
# Ab =counts in ROI (3×4) over contralateral muscle.
# Equation (1) is derived from the Report of the National Council on Radiation Protection and Measurements, Nuclear Medicine, "Factors Influencing the Choice and Use of Radionuclides in Diagnosis and Therapy", Report No. 70, p.79 (NRCP, Bethesda, Md., 1982). Equation (2) is derived from Rubin et al., J. Nucl. Med. 30:385-389, 1989. For purposes of reference, the disclosures of each of these publications is incorporated herein.
smiles,measurement,setting,value
"O=C([O-])CC(O)(CC(=O)[O-])C(=O)[O-].[67Ga+3] [^67 Ga, gallium-67 citrate]",concentration within lesion (pus capsule) vs contralateral tissues (in words),[1]; bacterial (E. coli) inflammation,to a greater extent than in the contralateral tissues
same,"Pus Capsule and Contralateral Tissue (T/B) Ratio, biodistribution","[1]; bacterial infection, 3 h",3.21 ± 0.13
same,"Pus Capsule and Contralateral Tissue (T/B) Ratio, biodistribution","[1]; bacterial infection, 24 h",4.07 ± 1.09
same,time of accumulation at the site of inflammation (in words),"[1]; bacterial infection, FIGS. 1 and 5",did not accumulate at the site of inflammation until several hours after its administration
same,Total Photon Efficiency,[2]; 91.3 keV,0.0296
same,Total Photon Efficiency,[2]; 93.3 keV,0.37
same,Total Photon Efficiency,[2]; 184.6 keV,0.1326
same,Total Photon Efficiency,[2]; 209 keV,0.01515
same,Total Photon Efficiency,[2]; 300.2 keV,0.0415
same,Total Photon Efficiency,"[2]; sum over photopeaks (^67 Ga), 159 keV (^123 I)",0.59
same,detection of the lesion in scintigraphic images (in words),"[3]; 1, 3, and 24 h, i.v.",can clearly detect the lesion
same,"Figure of Merit (FOM), equation (1)","[3]; 1 h, i.v.",1037 ± 215
same,"Pus Capsule to Contralateral Tissue (T/B) Ratio, gamma camera imaging","[3]; 1 h, i.v.",2.76 ± 0.18
same,"Figure of Merit (FOM), equation (2)","[3]; 1 h, i.v.",1.75 ± 0.2
same,"Figure of Merit (FOM), equation (1)","[3]; 3 h, i.v.",1581 ± 143
same,"Pus Capsule to Contralateral Tissue (T/B) Ratio, gamma camera imaging","[3]; 3 h, i.v.",3.61 ± 0.15
same,"Figure of Merit (FOM), equation (2)","[3]; 3 h, i.v.",2.61 ± 0.18
same,"efficacy by imaging T/B ratio, comparison of agents (in words)",[3]; 3 hrs,equal
same,"Figure of Merit (FOM), equation (1)","[3]; 24 h, i.v.",1958 ± 149
same,"Pus Capsule to Contralateral Tissue (T/B) Ratio, gamma camera imaging","[3]; 24 h, i.v.",5.09 ± 0.44
same,"Figure of Merit (FOM), equation (2)","[3]; 24 h, i.v.",4.09 ± 0.50
same,"imaging T/B ratios, comparison of agents (in words)",[3]; by 24 hrs,higher T/B ratios
same,"FOM values, comparison of agents (in words)",[3]; later time points (3 hrs and 24 hrs),equal or higher FOM values
